Reference: ChEMBL document CHEMBL5653631, “A Potent and Selective ULK1 Inhibitor Suppresses Autophagy and Sensitizes Cancer Cells to Nutrient Stress” (iScience, 2018)
Values belong to the molecule of their own block, whether it stands above or below them.

Legend:
[1] = biological target: Non-receptor tyrosine-protein kinase TYK2 (Homo sapiens) (UniProt P29597); assay: Inhibition of human recombinant TYK2 at 500 nM related to control ULK1
[2] = biological target: T1, Interleukin-1 receptor-associated kinase 4 (Homo sapiens) (UniProt Q9NWZ3); assay: Inhibition of human recombinant IRAK4 at 500 nM related to control ULK1
T1 sequence (whole entry): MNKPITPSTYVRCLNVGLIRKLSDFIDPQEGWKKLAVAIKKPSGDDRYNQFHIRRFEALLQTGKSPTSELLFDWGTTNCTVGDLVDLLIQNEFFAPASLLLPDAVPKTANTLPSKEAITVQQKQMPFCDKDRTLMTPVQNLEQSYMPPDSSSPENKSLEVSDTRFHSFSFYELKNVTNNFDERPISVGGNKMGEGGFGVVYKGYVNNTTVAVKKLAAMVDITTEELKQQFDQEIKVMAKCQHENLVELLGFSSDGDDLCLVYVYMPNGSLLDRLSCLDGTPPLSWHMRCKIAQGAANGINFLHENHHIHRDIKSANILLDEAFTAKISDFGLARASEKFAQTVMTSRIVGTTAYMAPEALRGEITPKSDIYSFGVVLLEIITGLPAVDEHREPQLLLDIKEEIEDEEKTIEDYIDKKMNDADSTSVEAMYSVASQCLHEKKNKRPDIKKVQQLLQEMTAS

[3] = biological target: Aurora kinase B (Homo sapiens) (UniProt Q96GD4); assay: Inhibition of human recombinant AurB at 500 nM related to control ULK1
Aurora kinase B (Homo sapiens), sequence (Q96GD4 whole entry): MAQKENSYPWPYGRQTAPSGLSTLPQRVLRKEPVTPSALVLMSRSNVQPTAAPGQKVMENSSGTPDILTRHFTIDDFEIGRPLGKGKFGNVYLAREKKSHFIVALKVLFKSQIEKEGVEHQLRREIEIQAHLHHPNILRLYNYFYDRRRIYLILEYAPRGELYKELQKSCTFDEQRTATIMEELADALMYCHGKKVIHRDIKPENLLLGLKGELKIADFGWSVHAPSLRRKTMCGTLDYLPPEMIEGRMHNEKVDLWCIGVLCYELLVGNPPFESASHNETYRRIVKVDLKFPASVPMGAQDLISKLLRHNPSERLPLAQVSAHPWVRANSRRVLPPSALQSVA

[4] = biological target: T2, Testis-specific serine/threonine-protein kinase 2 (Homo sapiens) (UniProt Q96PF2); assay: Inhibition of human recombinant TSSK2 at 40 nM related to control ULK1
T2 sequence (whole entry): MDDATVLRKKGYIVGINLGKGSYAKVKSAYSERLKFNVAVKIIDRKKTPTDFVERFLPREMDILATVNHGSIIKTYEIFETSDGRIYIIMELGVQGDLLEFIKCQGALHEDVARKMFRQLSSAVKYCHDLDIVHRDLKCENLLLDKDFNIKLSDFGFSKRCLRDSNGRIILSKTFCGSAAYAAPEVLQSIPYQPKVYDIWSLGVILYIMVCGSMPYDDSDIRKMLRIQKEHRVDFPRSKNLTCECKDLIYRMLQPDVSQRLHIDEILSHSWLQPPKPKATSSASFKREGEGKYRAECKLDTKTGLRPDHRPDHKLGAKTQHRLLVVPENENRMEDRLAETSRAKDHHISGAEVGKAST

[5] = biological target: Dual specificity protein kinase CLK1 (Homo sapiens) (UniProt P49759); assay: Inhibition of human recombinant CLK1 at 15 nM related to control ULK1
Dual specificity protein kinase CLK1 (Homo sapiens), sequence (P49759 whole entry, looked up): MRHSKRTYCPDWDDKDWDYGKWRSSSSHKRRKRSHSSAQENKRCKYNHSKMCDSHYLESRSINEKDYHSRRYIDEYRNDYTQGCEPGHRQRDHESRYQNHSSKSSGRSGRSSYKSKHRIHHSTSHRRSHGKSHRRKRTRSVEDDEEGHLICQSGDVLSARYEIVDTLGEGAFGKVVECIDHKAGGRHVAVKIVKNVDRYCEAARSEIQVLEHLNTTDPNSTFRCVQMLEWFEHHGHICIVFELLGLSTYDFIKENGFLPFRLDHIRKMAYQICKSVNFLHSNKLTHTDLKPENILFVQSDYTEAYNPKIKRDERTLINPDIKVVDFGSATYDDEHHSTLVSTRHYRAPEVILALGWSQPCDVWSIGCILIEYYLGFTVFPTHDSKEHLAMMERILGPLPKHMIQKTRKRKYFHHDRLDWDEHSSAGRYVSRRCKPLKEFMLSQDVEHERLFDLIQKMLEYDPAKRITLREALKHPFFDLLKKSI

[6] = biological target: T3, Inhibitor of nuclear factor kappa-B kinase subunit epsilon (Homo sapiens) (UniProt Q14164); assay: Inhibition of human recombinant IKKe at 15 nM in presence of ATP by radiometric assay relative to control
T3 sequence (whole entry): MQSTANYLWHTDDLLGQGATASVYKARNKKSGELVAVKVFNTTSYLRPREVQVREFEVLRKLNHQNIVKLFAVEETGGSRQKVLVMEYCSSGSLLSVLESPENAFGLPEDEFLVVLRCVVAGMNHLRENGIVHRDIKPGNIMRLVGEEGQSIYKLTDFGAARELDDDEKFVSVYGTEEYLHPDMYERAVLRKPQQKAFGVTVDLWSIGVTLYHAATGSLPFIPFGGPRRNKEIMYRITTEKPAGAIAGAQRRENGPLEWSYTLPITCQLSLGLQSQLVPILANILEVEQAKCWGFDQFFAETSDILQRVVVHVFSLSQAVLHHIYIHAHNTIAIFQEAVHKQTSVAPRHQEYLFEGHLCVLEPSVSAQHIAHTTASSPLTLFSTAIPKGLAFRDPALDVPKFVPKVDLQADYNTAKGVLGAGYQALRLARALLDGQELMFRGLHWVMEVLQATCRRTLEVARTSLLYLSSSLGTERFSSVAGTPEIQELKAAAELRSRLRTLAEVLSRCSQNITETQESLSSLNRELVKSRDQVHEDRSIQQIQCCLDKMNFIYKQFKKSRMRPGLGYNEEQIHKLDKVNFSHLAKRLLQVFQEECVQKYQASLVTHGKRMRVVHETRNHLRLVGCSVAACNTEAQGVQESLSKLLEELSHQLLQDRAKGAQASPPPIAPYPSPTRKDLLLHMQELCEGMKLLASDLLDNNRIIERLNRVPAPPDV

[7] = biological target: T4, Serine/threonine-protein kinase DCLK3 (Homo sapiens) (UniProt Q9C098); assay: Inhibition of human recombinant DCAMKL3 at 15 nM related to control ULK1
T4 sequence (whole entry): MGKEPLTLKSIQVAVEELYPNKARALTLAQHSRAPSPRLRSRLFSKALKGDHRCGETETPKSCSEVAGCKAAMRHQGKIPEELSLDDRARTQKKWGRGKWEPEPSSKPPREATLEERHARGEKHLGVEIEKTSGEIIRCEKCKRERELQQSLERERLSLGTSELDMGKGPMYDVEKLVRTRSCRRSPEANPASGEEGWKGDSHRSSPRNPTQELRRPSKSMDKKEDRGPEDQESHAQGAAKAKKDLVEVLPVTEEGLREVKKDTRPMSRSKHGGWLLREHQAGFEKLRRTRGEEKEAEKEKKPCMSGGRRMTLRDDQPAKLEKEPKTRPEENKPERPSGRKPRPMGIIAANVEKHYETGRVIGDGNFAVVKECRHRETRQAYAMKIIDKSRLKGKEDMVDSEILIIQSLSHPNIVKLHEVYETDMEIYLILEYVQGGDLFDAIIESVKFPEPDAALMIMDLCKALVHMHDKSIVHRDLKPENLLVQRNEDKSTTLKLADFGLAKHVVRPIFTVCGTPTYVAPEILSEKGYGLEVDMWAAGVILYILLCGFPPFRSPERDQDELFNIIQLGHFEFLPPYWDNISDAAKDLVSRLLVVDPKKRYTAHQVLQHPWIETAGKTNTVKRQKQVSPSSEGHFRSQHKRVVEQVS

[8] = biological target: T5, Mitogen-activated protein kinase 13 (Homo sapiens) (UniProt O15264); assay: Inhibition of human recombinant p38delta at 15 nM in presence of ATP by radiometric assay relative to control
T5 sequence (whole entry): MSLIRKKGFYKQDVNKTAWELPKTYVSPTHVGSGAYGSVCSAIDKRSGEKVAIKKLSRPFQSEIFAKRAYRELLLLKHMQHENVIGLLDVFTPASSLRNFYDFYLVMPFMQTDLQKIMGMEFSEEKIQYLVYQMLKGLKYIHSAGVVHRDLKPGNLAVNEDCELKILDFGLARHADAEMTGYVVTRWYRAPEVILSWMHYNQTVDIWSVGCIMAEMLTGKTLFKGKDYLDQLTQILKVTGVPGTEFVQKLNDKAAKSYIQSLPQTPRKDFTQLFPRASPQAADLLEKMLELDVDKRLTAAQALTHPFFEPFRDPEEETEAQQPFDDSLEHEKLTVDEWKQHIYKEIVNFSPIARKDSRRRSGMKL

Non-receptor tyrosine-protein kinase TYK2 (Homo sapiens), sequence (P29597 whole entry): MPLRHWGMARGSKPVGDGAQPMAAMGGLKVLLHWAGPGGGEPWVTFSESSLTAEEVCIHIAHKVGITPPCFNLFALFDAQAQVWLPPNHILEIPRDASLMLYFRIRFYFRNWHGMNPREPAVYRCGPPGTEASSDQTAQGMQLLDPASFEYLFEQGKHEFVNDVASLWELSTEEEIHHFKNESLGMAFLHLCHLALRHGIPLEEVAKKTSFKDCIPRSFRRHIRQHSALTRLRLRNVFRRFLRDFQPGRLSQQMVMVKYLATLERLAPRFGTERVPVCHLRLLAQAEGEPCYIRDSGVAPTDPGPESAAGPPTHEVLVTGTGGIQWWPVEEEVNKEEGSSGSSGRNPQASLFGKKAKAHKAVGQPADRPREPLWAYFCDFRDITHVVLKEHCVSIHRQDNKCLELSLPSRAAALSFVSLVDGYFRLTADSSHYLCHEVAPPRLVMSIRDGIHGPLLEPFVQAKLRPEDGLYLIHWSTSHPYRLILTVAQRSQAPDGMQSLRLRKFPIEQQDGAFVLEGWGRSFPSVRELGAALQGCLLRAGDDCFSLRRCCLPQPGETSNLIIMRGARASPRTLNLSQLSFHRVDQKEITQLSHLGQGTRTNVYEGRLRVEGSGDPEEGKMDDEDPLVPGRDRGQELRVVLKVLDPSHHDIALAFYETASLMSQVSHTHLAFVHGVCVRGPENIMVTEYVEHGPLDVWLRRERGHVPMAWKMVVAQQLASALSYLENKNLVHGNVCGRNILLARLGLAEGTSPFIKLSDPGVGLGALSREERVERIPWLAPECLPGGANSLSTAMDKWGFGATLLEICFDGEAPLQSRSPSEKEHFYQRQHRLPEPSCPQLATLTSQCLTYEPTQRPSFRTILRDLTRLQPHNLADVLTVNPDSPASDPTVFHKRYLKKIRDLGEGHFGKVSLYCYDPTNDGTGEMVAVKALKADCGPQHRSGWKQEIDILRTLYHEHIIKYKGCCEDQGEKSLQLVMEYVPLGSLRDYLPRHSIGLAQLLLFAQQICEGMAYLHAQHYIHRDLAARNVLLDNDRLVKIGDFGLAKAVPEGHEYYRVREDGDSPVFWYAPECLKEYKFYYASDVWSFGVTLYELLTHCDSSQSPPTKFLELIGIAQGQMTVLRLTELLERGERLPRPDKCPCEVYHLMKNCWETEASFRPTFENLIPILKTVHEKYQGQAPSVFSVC

- fold change (FC) [1]: 1.05
- fold change (FC) [2]: 0.08
- fold change (FC) [3]: 1.24
SMILES: CNC(=O)c1ccccc1Oc1nc(Nc2cc(OC)c(OC)c(OC)c2)ncc1Br

- fold change (FC) [4]: 0
SMILES: O=C(N[C@@H](C1CC1)C(F)(F)F)c1cc(-c2cnn3cc(-c4ccc(F)cc4)cnc23)cs1

- fold change (FC) [5]: 0.95
- inhibition [6]: 75%
- fold change (FC) [7]: 0.4
- inhibition [8]: 6%
SMILES: CC(C)[C@H](NC(=O)c1cc(-c2cnn3cc(-c4ccc(OCCN5CCCCC5)cc4)cnc23)cs1)C(F)(F)F
